From article PMC8318231, “Rate-of-Kill (RoK) assays to triage large compound sets for Chagas disease drug discovery: Application to GSK Chagas Box” (PLoS Neglected Tropical Diseases, 2021)

Legend:
[1] = test system: T. cruzi Tulahuen trypomastigotes; test: T. cruzi trypomastigote assay (Cell Titer-Glo viability, ATP luminescence); type: cell-based, Trypanosoma cruzi; settings: for Trypomastigotes pIC50 48 hours: 48 hours incubation; for Trypomastigotes pIC50 48 hours / Trypomastigotes pIC50 72 hours: pIC50 = -log10 IC50 in molar units; for Trypomastigotes pIC50 72 hours: 72 hours incubation; for 72 pIC50 (trypomastigotes, raw data of Fig 1D): 72 hours, plotted values, censored values given without sign; for 48 pIC50 / 72 pIC50: trypomastigote assay; for 48 pIC50: 48 h; for 72 pIC50: 72 h
How it was run: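 Compounds were tested in dose response or once at a final 5 μM against 5 × 10^4 trypomastigotes per well (DMEM, 2% FBS), collected on days 5–8 from LLC-MK2 infected cultures. ATP luminescence via CellTiter-Glo reports live parasites; DMSO defines 0% and cell-free wells 100% effect.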

[2] = test system: T. cruzi intracellular amastigotes in H9c2 cells; test: Rate-of-Kill (RoK) high-content imaging assay, amastigotes per cell (AM/CELL) and curve descriptors; type: cell-based, Trypanosoma cruzi; parameters: key to ME_24h / ME_48h / ME_72h: % reduction in parasite burden (cidal response); t50pct_MCC50 / t50pct_Cmax: unit not given here; settings: for ME_24h: 24h; for ME_48h: 48h; for ME_72h: 72h; for tlag_Cmax / t50pct_Cmax / t50%_Cmax: at Cmax; for ME_24h (%): maximum effect at 24 h; for ME_24h (%) / ME_48h (%) / ME_72h (%): RoK assay; for ME_48h (%): maximum effect at 48 h; for ME_72h (%): maximum effect at 72 h; for ME 24h (maximum effect at 24 hours, intracellular amastigotes): maximum percentage of parasite burden reduction reached by any concentration
How it was run: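 Readouts at each time point are amastigotes per cell and host nuclei count (cytotoxicity), from DRAQ5 high-content imaging. Infection: trypomastigotes on H9c2 at MOI 8 for 18 h. Dosing was 5 μM single point or 11 points, 1/3 steps from 50 μM. Effect scaled between 4 h infected and uninfected controls.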

SMILES | Trypomastigotes pIC50 48 hours [1] | Trypomastigotes pIC50 72 hours [1] | ME_24h ([2]; figure 5) | ME_48h ([2]; figure 5) | ME_72h ([2]; figure 5) | MCCE ([2]; RoK curve descriptor) | tlag_Cmax [2] | t50pct_Cmax ([2]; figure 5) | tlag_Cmax ([2]; figure 5) | t50pct_MCC50 ([2]; at MCC50, figure 5) | tlag_MCC50 ([2]; at MCC50, figure 5) | MCC50 ([2]; figure 5) | MCCE ([2]; figure 5) | ME_24h (%) [2] | ME_48h (%) [2] | ME_72h (%) [2] | ME 24h (maximum effect at 24 hours, intracellular amastigotes) [2] | AM/CELL NORM ([2]; Time 4, sheet figure 4 A) | AM/CELL NORM ([2]; Time 24, sheet figure 4 A) | AM/CELL NORM ([2]; Time 48, sheet figure 4 A) | other results
CCOc1ccc(NC(=O)C=Cc2ccc(CC)o2)cc1 [TCMDC-143160] | 5.4 | 5 | -214.627 | -667.694 | -988.393 | 16.7 µM | 72.0 h | 72 | 72 | 72 | 72 | 50 µM | 16.6667 | -214.6% | -667.7% | -988.4% | 0.6973% |  |  |  | AM/CELL NORM ([2]; Time 4, figure 4 A): 1.332; AM/CELL NORM ([2]; Time 24, figure 4 A): -214.627; AM/CELL NORM ([2]; Time 48, figure 4 A): -667.694; AM/CELL NORM ([2]; Time 72, figure 4 A): -988.393
COc1ccc(NS(=O)(=O)c2cc(NC(=O)c3ccc([N+](=O)[O-])s3)ccc2OC)cc1 [TCMDC-143163] | 6.9 | 6.6 | 71.4836 | 99.4358 | 93.6846 | 0.2 µM | 4.0 h | 24 | 4 | 48 | 24 |  | 0.2058 | 71.5% | 99.4% | 93.7% | 71.4836% | 10.6053 | 69.9764 | 96.1683 | activity in trypomastigotes assay (in words) ([1]; 48 and 72 hours): potent activity; MCC50 ([2]; RoK curve descriptor): 0.2 µM; AM/CELL NORM ([2]; Time 72, sheet figure 4 A): 85.8906; t50%_Cmax [2]: 24.0 h; t50%_MCC50 ([2]; at MCC50): 48.0 h; tlag_MCC50 ([2]; at MCC50): 24.0 h; MCC50 ([2]; figure 5, in µM): 0.2058
NC(=O)c1ccccc1Nc1nc(NC2CCCCC2)nc2[nH]ccc12 [TCMDC-143314] | 5.1 | 4.4 | -235.508 | -846.189 | -1441.39 | 0.6 µM | 72.0 h | 72 | 72 | 72 | 72 | 50 µM | 0.6173 | -235.5% | -846.2% | -1441.4% | 91.926% |  |  |  | AM/CELL NORM ([2]; Time 4, figure 4 A): -0.353; AM/CELL NORM ([2]; Time 24, figure 4 A): -235.508; AM/CELL NORM ([2]; Time 48, figure 4 A): -898.709; AM/CELL NORM ([2]; Time 72, figure 4 A): -1946.1
CCCCn1nnnc1CSc1nc(C)cc(C)c1C#N [TCMDC-143315] | 6.6 | 6.8 | 53.1743 | 83.3988 | 72.5932 | 0.2 µM | 4.0 h | 24 | 4 | 48 | 4 |  | 0.2058 | 53.2% | 83.4% | 72.6% | 53.1743% | 13.5421 | 53.1743 | 83.3988 | MCC50 ([2]; RoK curve descriptor): 0.6 µM; AM/CELL NORM ([2]; Time 72, sheet figure 4 A): 54.3555; t50%_Cmax [2]: 24.0 h; t50%_MCC50 ([2]; at MCC50): 48.0 h; tlag_MCC50 ([2]; at MCC50): 4.0 h; MCC50 ([2]; figure 5, in µM): 0.6173
O=C(CSc1ccc(F)cc1)N[C@@H](Cc1cnc[nH]1)C(=O)NCCc1ccccc1.O=C(O)C(F)(F)F [TCMDC-143317] | < 4.3 | < 4.3 | -217.337 | -137.825 | 44.5659 | 1.2 µM | 24.0 h | 72 | 24 | 72 | 48 | 50 µM | 1.235 | -217.3% | -137.8% | 44.6% | -157.067% | -0.3431 | -195.022 | -169.506 | 72 pIC50 (trypomastigotes, raw data of Fig 1D) [1]: < 4.3; 48 pIC50 ([1]; figure 1A): < 4.3; 72 pIC50 ([1]; figure 1A): < 4.3; 72 pIC50 ([1]; figure 1B): < 4.3; MCC50 ([2]; RoK curve descriptor): 50.0 µM; AM/CELL NORM ([2]; Time 72, sheet figure 4 A): 59.3586; t50%_Cmax [2]: 72.0 h; t50%_MCC50 ([2]; at MCC50): 72.0 h; tlag_MCC50 ([2]; at MCC50): 24.0 h
CCOc1cnn(C)c(=O)c1Nc1ccc(C(=O)NCc2ccc(F)cc2)cc1 [TCMDC-143319] | < 4.3 | < 4.3 | -74.4049 | -82.6884 | 13.1125 | 0.2 µM | 24.0 h | 72 | 24 | 72 | 72 | 50 µM | 0.2058 | -74.4% | -82.7% | 13.1% | -74.4049% | -4.52 | -105.903 | -82.6884 | 72 pIC50 (trypomastigotes, raw data of Fig 1D) [1]: < 4.3; 48 pIC50 ([1]; figure 1A): < 4.3; 72 pIC50 ([1]; figure 1A): < 4.3; 72 pIC50 ([1]; figure 1B): < 4.3; AM/CELL NORM ([2]; Time 72, sheet figure 4 A): -13.3312
O=C(NC1C(=O)N(c2ccccc2)C1c1cccnc1)c1ccc(Cl)s1 (stereo not shown) [TCMDC-143324] | < 4.3 | < 4.3 | -26.8888 | -112.607 | -10.0757 | 0.07 µM | 72.0 h | 72 | 72 | 72 | 72 | 50 µM | 0.06859 | -26.9% | -112.6% | -10.1% | -26.8888% | -16.6269 | -26.8888 | -112.607 | 72 pIC50 (trypomastigotes, raw data of Fig 1D) [1]: < 4.3; 48 pIC50 ([1]; figure 1A): < 4.3; 72 pIC50 ([1]; figure 1A): < 4.3; 72 pIC50 ([1]; figure 1B): < 4.3; AM/CELL NORM ([2]; Time 72, sheet figure 4 A): -155.468
